Laboratory results from publication PMC9948168, “Vanillin-Based Indolin-2-one Derivative Bearing a Pyridyl Moiety as a Promising Anti-Breast Cancer Agent via Anti-Estrogenic Activity” (ACS Omega, 2023).

How the values were obtained:
Assay in all cases: NCI-60 one-dose screening
Type in all cases: cell-based
A498 = conditions: Homo sapiens, A498, Renal Cancer, read-out: GI (%)
Experimental: (§1) Compounds 5a–c and 6a–o were tested using standard NCI protocols for in vitro activity at the National Cancer Institute (NCI, Bethesda, Maryland, USA), wherein compounds were tested using one single concentration of 10 μM against 60 cell lines of nine different cancer types. […] Excellent activity was observed against a single NSCLC cell line, EKVX, for compounds 5a–c (GIs = 77–86%, Table 1) with no observed activity for indoles with substituted vanillin 6a–o.
(§2) Anticancer activity was tested against 60 cancer cell lines at the NCI, Bethesda, USA. The screening process was done with a single dosage of 10 μM according to NCI protocols published on the NCI website https://dtp.cancer.gov/discovery_development/nci-60/methodology.htm.

BT-549 = conditions: Homo sapiens, BT-549, Breast Cancer, read-out: GI (%)
Experimental: as §1, §2

CCRF-CEM = conditions: Homo sapiens, Leukemias, read-out: GI (%)
Experimental: as §1, §2

DU-145 = conditions: Homo sapiens, DU-145, Prostate Cancer, read-out: GI (%)
Experimental: as §1, §2

EKVX = conditions: Homo sapiens, Non-Small Cell Lung Cancer, read-out: GI (%)
Experimental: as §1, §2

HCT-116 = conditions: Homo sapiens, HCT-116, Colon Cancer, read-out: GI (%)
Experimental: as §1, §2

HCT-15 = conditions: Homo sapiens, HCT-15, Colon Cancer, read-out: GI (%)
Experimental: as §1, §2

HOP-92 = conditions: Homo sapiens, HOP-92, Non-Small Cell Lung Cancer, read-out: GI (%)
Experimental: as §1, §2

HS 578T = conditions: Homo sapiens, Breast Cancer, read-out: GI (%)
Experimental: as §1, §2

HT29 = conditions: Homo sapiens, HT-29, HT29, Colon Cancer, read-out: GI (%)
Experimental: as §1, §2

IGROV1 = conditions: Homo sapiens, IGROV-1, IGROV1, Ovarian Cancer, read-out: GI (%)
Experimental: as §1, §2

KM12 = conditions: Homo sapiens, KM12, Colon Cancer, read-out: GI (%)
Experimental: as §1, §2

MALME-3M = conditions: Homo sapiens, Melanoma, read-out: GI (%)
Experimental: as §1, §2

MDA-MB-435 = conditions: Homo sapiens, MDA-MB-435, Melanoma, read-out: GI (%)
Experimental: as §1, §2

NCI-H226 = conditions: Homo sapiens, NCI-H226, Non-Small Cell Lung Cancer, read-out: GI (%)
Experimental: as §1, §2

NCI-H23 = conditions: Homo sapiens, NCI-H23, Non-Small Cell Lung Cancer, read-out: GI (%)
Experimental: as §1, §2

NCI-H322M = conditions: Homo sapiens, Non-Small Cell Lung Cancer, read-out: GI (%)
Experimental: as §1, §2

NCI-H460 = conditions: Homo sapiens, NCI-H460, Non-Small Cell Lung Cancer, read-out: GI (%)
Experimental: as §1, §2

NCI-H522 = conditions: Homo sapiens, NCI-H522, Non-Small Cell Lung Cancer, read-out: GI (%)
Experimental: as §1, §2

NCI/ADR-RES = conditions: Homo sapiens, Ovarian Cancer, read-out: GI (%)
Experimental: as §1, §2

OVCAR-4 = conditions: Homo sapiens, OVCAR-4, 10 μM; OVCAR-4, Ovarian Cancer; read-out: GI (%)
Experimental: as §1, §2

OVCAR-5 = conditions: Homo sapiens, OVCAR-5, Ovarian Cancer, read-out: GI (%)
Experimental: as §1, §2

PC-3 = conditions: Homo sapiens, PC-3, Prostate Cancer, read-out: GI (%)
Experimental: as §1, §2

RPMI-8226 = conditions: Homo sapiens, RPMI-8226, Leukemias, read-out: GI (%)
Experimental: as §1, §2

SF-268 = conditions: Homo sapiens, SF-268, CNS Cancer, read-out: GI (%)
Experimental: as §1, §2

SF-539 = conditions: Homo sapiens, SF-539, CNS Cancer, read-out: GI (%)
Experimental: as §1, §2

SK-MEL-28 = conditions: Homo sapiens, SK-MEL-28, Melanoma, read-out: GI (%)
Experimental: as §1, §2

SK-MEL-5 = conditions: Homo sapiens, SK-MEL-5, Melanoma, read-out: GI (%)
Experimental: as §1, §2

SK-OV-3 = conditions: Homo sapiens, SK-OV-3, Ovarian Cancer, read-out: GI (%)
Experimental: as §1, §2

SN12C = conditions: Homo sapiens, Renal Cancer, read-out: GI (%)
Experimental: as §1, §2

SR = conditions: Homo sapiens, Leukemias, read-out: GI (%)
Experimental: as §1, §2

SW-620 = conditions: Homo sapiens, SW-620, Colon Cancer, read-out: GI (%)
Experimental: as §1, §2

UACC-257 = conditions: Homo sapiens, UACC-257, Melanoma, read-out: GI (%)
Experimental: as §1, §2

UACC-62 = conditions: Homo sapiens, UACC-62, Melanoma, read-out: GI (%)
Experimental: as §1, §2

UO-31 = conditions: Homo sapiens, UO-31, Renal Cancer, read-out: GI (%)
Experimental: as §1, §2

| Structure (SMILES) | inhibition at 10 µM (A498) | inhibition at 10 µM (BT-549) | inhibition at 10 µM (CCRF-CEM) | inhibition at 10 µM (DU-145) | inhibition at 10 µM (EKVX) | inhibition at 10 µM (HCT-116) | inhibition at 10 µM (HCT-15) | inhibition at 10 µM (HOP-92) | inhibition at 10 µM (HS 578T) | inhibition at 10 µM (HT29) | inhibition at 10 µM (IGROV1) | inhibition at 10 µM (KM12) | inhibition at 10 µM (MALME-3M) | inhibition at 10 µM (MDA-MB-435) | inhibition at 10 µM (NCI-H226) | inhibition at 10 µM (NCI-H23) | inhibition at 10 µM (NCI-H322M) | inhibition at 10 µM (NCI-H460) | inhibition at 10 µM (NCI-H522) | inhibition at 10 µM (NCI/ADR-RES) | also measured |
| --- | --- | --- | --- | --- | --- | --- | --- | --- | --- | --- | --- | --- | --- | --- | --- | --- | --- | --- | --- | --- | --- |
| COc1cc(C=C2C(=O)Nc3ccc(Cl)cc32)ccc1OCc1ccc(Cl)cc1 (mixture of isomers) [6g] | 13.5% | 4.38% | 18.1% | 6.57% | 27.5% | 49% | 13.9% | 27.8% | 2.99% | 6.96% | 37.5% | 3.49% | 18.7% | -1.14% | 17.1% | 20.2% | 22.9% | 50.5% | 6.96% | 16.1% | inhibition at 10 µM (OVCAR-4): 74 to 97%; inhibition at 10 µM (OVCAR-5): 3.04%; inhibition at 10 µM (PC-3): 22.3%; inhibition at 10 µM (RPMI-8226): -3.63%; inhibition at 10 µM (SF-268): 20%; inhibition at 10 µM (SF-539): 10.7%; inhibition at 10 µM (SK-MEL-28): -3.4%; inhibition at 10 µM (SK-MEL-5): 8.56%; inhibition at 10 µM (SK-OV-3): 2.96%; inhibition at 10 µM (SN12C): 9.18%; inhibition at 10 µM (SR): 41.6%; inhibition at 10 µM (SW-620): 23%; inhibition at 10 µM (UACC-257): -8.01%; inhibition at 10 µM (UACC-62): 27%; inhibition at 10 µM (UO-31): 37.9% |
| COc1cc(C=C2C(=O)Nc3ccc(Cl)cc32)ccc1OCc1ccc(F)cc1 (mixture of isomers) [6h] | 6.57% | -1.21% | 30.5% | 10.5% | 11.5% | 52.1% | 13.6% | 11.7% | 5.91% | 5.93% | 22.7% | -0.4% | 17.7% | 8.73% | 4.31% | 18.8% | 10.7% | 29.5% | 12.1% | 11.7% | inhibition at 10 µM (OVCAR-4): 74 to 97%; inhibition at 10 µM (OVCAR-5): 3.31%; inhibition at 10 µM (PC-3): 15.8%; inhibition at 10 µM (RPMI-8226): -0.5%; inhibition at 10 µM (SF-268): 9.84%; inhibition at 10 µM (SF-539): 7.83%; inhibition at 10 µM (SK-MEL-28): -3.14%; inhibition at 10 µM (SK-MEL-5): 10.8%; inhibition at 10 µM (SK-OV-3): -9.69%; inhibition at 10 µM (SN12C): 11.1%; inhibition at 10 µM (SR): 58.1%; inhibition at 10 µM (SW-620): 40.3%; inhibition at 10 µM (UACC-257): -1.98%; inhibition at 10 µM (UACC-62): 29.8%; inhibition at 10 µM (UO-31): 25.7% |
| COc1cc(C=C2C(=O)Nc3ccc(Cl)cc32)ccc1OCc1ccccn1 (mixture of isomers) [6j] | 0.8% | -8.61% | 2.39% | -7.75% | 27% | -2.75% | 22.8% | -0.22% | -2.66% | -8.55% | 13.4% | -0.52% | 1.35% | -3.49% | 6.59% | 9.09% | 2.99% | -4.56% | 4.56% | 5.4% | inhibition at 10 µM (OVCAR-4): 8.34%; inhibition at 10 µM (OVCAR-5): 0.34%; inhibition at 10 µM (PC-3): 11.7%; inhibition at 10 µM (RPMI-8226): 0.53%; inhibition at 10 µM (SF-268): 1.24%; inhibition at 10 µM (SF-539): 4.61%; inhibition at 10 µM (SK-MEL-28): -15.1%; inhibition at 10 µM (SK-MEL-5): 3.73%; inhibition at 10 µM (SK-OV-3): -4.32%; inhibition at 10 µM (SN12C): 3.96%; inhibition at 10 µM (SR): 11.5%; inhibition at 10 µM (SW-620): 2.21%; inhibition at 10 µM (UACC-257): -5.04%; inhibition at 10 µM (UACC-62): 21.4%; inhibition at 10 µM (UO-31): 29.6% |
